Molecules are shown by their SMILES. Read-outs that look alike come from different tables or passages of the source. A value given as a limit tells only on which side of the number the result lay.

From patent publication US20100056516A1 (priority 2006, published 2010) come the findings set out here.

The target of data set [1] is HIV-1 reverse transcriptase (RNase H) (Human immunodeficiency virus type 1 group M subtype B, UniProt P04585). The experiment in a line: ASH assay: RNase H mediated RNA cleavage (ECL format, BioVeris M384). The data set is classed as biochemical. The protocol: Potency of a substance as an RNase H inhibitors can be determined by measuring its ability prevent RNase H catalyzed cleavage of the RNA strand in a RNA/DNA hybrid duplex substrate. RNase H activity is measured using a substrate generated by annealing the oligoribo-nucleotide 5′-rCrCrUrCrUrCrArArArArArCrArGrGrArGrCrArGrArArArGrArCrArArG (SEQ ID NO:1) to the oligodeoxyribonucleotide 5′-Biotin-[…] (SEQ ID NO:2). […] (SEQ ID NO:3). The resulting double-stranded duplex DNA product is quantitated in an ALPHA screen format using [streptavidin- and anti-fluorescein-coated beads (Packard Bioscience) following the manufacturer's guidelines and reading on a Fusion AlphaScreen instrument. Alternatively, the released 5′-Biotinylated DNA is annealed to a complementary oligodeoxyribonucleotide: 5′-ruthenium-[…] (SEQ ID NO:3). The resulting double-stranded duplex DNA product is quantitated in an ECL screen format using Dynabeads M280 coated with streptavidin (BioVeris Corporation) following the manufacturer's guidelines and reading on a BioVeris M384 Analyzer.

The target of a further data set is HIV integrase (Human immunodeficiency virus type 1 group M subtype B, UniProt P04585). Nature of the data set: integrase strand transfer assay (STA). It counts as biochemical.
The test system of the next data set is HXB2 virus. Nature of the data set: microbe, parasite or virus in culture. It counts as cell-based, HIV. In a few lines:
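HXB2 virus used to infect HeLa P4-2 cells in a single-cycle format; inhibition of acute infection is measured.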

Another data set relates to HeLa P4-2 cell line. The conditions noted are these: human. The source says:
The HeLa P4-2 cell line used in the single cycle HIV infectivity Assay B of Example 270 was also used to determine compound cytotoxicity in the absence of viral infection.

Setting [2] is: integrase strand transfer, read-out: IC50 in the STA assay.
Where [3] appears, read: Human immunodeficiency virus 1, HXB2, HeLaP4-2, read-out: SCIA-B (IC50, μM).
The mark [4] stands for this setting: Human immunodeficiency virus 1, HXB2, HeLaP4-2, read-out: antiviral IC50 (SCIA-B).
Setting [5] is: IC50 in the STA assay, integrase strand transfer.
The mark [6] stands for this setting: STA (IC50, μM), integrase strand-transfer assay, Example 269.

As for `O=c1c(-c2cccc(C(F)(F)F)c2)c(O)c2cccnc2n1O` [Example 28, 1,4-Dihydroxy-3-[3-(trifluoromethyl)phenyl]-1,8-naphthyridin-2(1H)-one], the IC50 – broadly, the concentration needed to halve the response being measured – in data set [1] (RNase H mediated RNA cleavage assay, Example 269, read-out: ASH (IC50)) is 0.12 µM; on HIV integrase (setting [2]), less than 50 µM; on HIV integrase (integrase strand-transfer assay, Example 269, read-out: STA (IC50)), 0.26 µM; with HXB2 virus (setting [3]), 0.22 µM; in the data set with HXB2 virus (setting [4]), less than 100 µM. Also, the “Cytotoxicity (LD50, μM)” value in the data set with HeLa P4-2 cell line was more than 100 µM.
For `O=c1cc(Nc2ccc(-c3ccccc3)cc2)c2cccnc2n1O` [Example 106, 4-(Biphenyl-4-ylamino)-1-hydroxy-1,8-naphthyridin-2(1H)-one], the IC50 in data set [1] is 0.088 µM; against HIV integrase (setting [5]), less than 50 µM; against HIV integrase (setting [6]), 0.22 µM; in the data set on HXB2 virus (setting [3]) it was 0.43 µM; with HXB2 virus (setting [4]) it was less than 100 µM. Further, in the data set on HeLa P4-2 cell line, the “Cytotoxicity (LD50, μM)” value was 12 µM.
On to `COc1ccc(CNc2cc(=O)n(O)c3ncccc23)cc1` [Example 140, 1-hydroxy-4-[(4-methoxybenzyl)amino]-1,8-naphthyridin-2(1H-one)], for which the IC50 was 0.11 µM in data set [1]; less than 50 µM against HIV integrase (setting [5]); 0.22 µM at HIV integrase (setting [6]); 0.09 µM in the data set with HXB2 virus (setting [3]); less than 100 µM with HXB2 virus (setting [4]). Further, the “Cytotoxicity (LD50, μM)” value in the data set with HeLa P4-2 cell line was determined as 5 µM.
Turning to `NCc1cccc(-c2cccc(-c3ccnc4c3c(O)cc(=O)n4O)c2)c1` [Example 227, 5-[3′-(aminomethyl)biphenyl-3-yl]-1,4-dihydroxy-1,8-naphthyridin-2-(1H)-one], the IC50 on HIV integrase (setting [2]) is less than 50 µM; in the data set with HXB2 virus (setting [4]), less than 100 µM.
As for `COc1ccccc1-c1c(O)c2cccnc2n(O)c1=O` [Example 39, 1,4-Dihydroxy-3-(2-methoxyphenyl)-1,8-naphthyridin-2(1H)-one], the IC50 at HIV integrase (setting [2]) is less than 50 µM; in the data set with HXB2 virus (setting [4]), less than 100 µM.
As to `O=c1c2ccccc2c2cccnc2n1O` [Example 265, 5-Hydroxybenzo[c]-1,8-naphthyridin-6(5B)-one], the IC50 on HIV integrase (setting [2]) is less than 50 µM; in the data set on HXB2 virus (setting [4]), less than 100 µM.
With `CN1C(=O)c2c(c3cccnc3n(O)c2=O)NC1c1cccc(CN)c1` (stereo not shown) [Example 220, 2-[3-(Aminomethyl)phenyl]-6-hydroxy-3-methyl-2,3-dihydropyrimido[5,4-c]-1,8-naphthyridine-4,5(1H, 6H)dione], the IC50 on HIV integrase (setting [2]) is less than 50 µM; in the data set with HXB2 virus (setting [4]), less than 100 µM.
As for `CS(=O)(=O)c1cccc(-c2cc(=O)n(O)c3ncccc23)c1` [Example 199, 1-hydroxy-4-[3-(methylsulfonyl)phenyl]-1,8-naphthyridin-2(1H)-one], the IC50 on HIV integrase (setting [2]) is less than 50 µM; in the data set on HXB2 virus (setting [4]), less than 100 µM.
Consider `O=c1cc(NCc2cnc(-c3ccccc3)[nH]2)c2cccnc2n1O` [Example 167, 1-hydroxy-4-{[(2-phenyl-1-imidazole-5-yl)methyl]amino}-1,8-naphthyridin-2 (1H-one)], for which the results for the IC50 on HIV integrase (setting [2]) and in the data set with HXB2 virus (setting [4]) were less than 50 µM and less than 100 µM, respectively.
Take `O=c1c(-c2ccccc2)c(O)c2cc(-c3cccs3)cnc2n1O` [Example 75, 6-(thien-2-yl)-1,4-dihydroxy-3-phenyl-1,8-napthyridin-2(1H)-one]: the values for the IC50 on HIV integrase (setting [2]) and with HXB2 virus (setting [4]) were less than 50 µM and less than 100 µM, respectively.
Taken in the same sequence, the figures for `CCOC(=O)c1c(O)c2cc(C(=O)N3CCC(CCCc4ccccc4)CC3)cnc2n(O)c1=O` [Example 83, Ethyl 1,4-dihydroxy-2-oxo-6-{[4-(3-phenylpropyl)piperidin-1-yl]carbonyl}-1,2-dihydro-1,8-naphthyridine-3-carboxylate] were less than 50 µM and less than 100 µM.
In the case of `O=c1c2ccc(-c3ccccc3)cc2c2cccnc2n1O` [Example 267, 5-Hydroxy-9-phenylbenzo[c]-1,8-naphthyridin-6(5.H)-one], the IC50 is less than 50 µM on HIV integrase (setting [2]) and less than 100 µM in the data set with HXB2 virus (setting [4]).
For `O=c1cc(N2Cc3ccc(-c4ccccc4)cc3C2)c2cccnc2n1O` [Example 256, 1-hydroxy-4-(5-phenyl-1,3-dihydro-2H-isoindol-2-yl)-1,8-naphthyridin-2(1H)-one], the figures for the IC50 on HIV integrase (setting [2]) and with HXB2 virus (setting [4]) were less than 50 µM and less than 100 µM, respectively.
Take `O=c1cc(Nc2ccccc2)c2cccnc2n1O` [Example 103, 4-Anilino-1-hydroxy-1,8-naphthyridin-2(1H)-one]: the IC50 at HIV integrase (setting [2]) is less than 50 µM; with HXB2 virus (setting [4]) it was less than 100 µM.
Taken in the same sequence, the figures for `CCOC(=O)c1c(-c2ccc(-c3ccc(CN)cc3)cc2)c2cccnc2n(O)c1=O` [Example 243, Ethyl 4-[4′-(aminomethyl)biphenyl-4-yl]-1-hydroxy-2-oxo-1,2-dihydro-1,8-naphthyridine-3-carboxylate] were less than 50 µM and less than 100 µM.
`CCOC(=O)c1c(O)c2cc(C(=O)NCc3ccccc3)cnc2n(O)c1=O` [Example 77, Ethyl 6-[(benzylamino)carbonyl]-1,4-dihydroxy-2-oxo-1,2-dihydro-1,8-naphthyridine-3-carboxylate]: the half-maximal inhibitory concentration (IC50) at HIV integrase (setting [2]) is less than 50 µM; in the data set on HXB2 virus (setting [4]), less than 100 µM.
`CNC(=O)c1cccc(-c2cc(=O)n(O)c3ncccc23)c1` [Example 180, 3-(1-hydroxy-2-oxo-1,2-dihydro-1,8-naphthyridin-4-yl)-N-methylbenzamide]: the IC50 at HIV integrase (setting [2]) was less than 50 µM; in the data set with HXB2 virus (setting [4]), less than 100 µM.
`CNC(=O)c1ccc2c(=O)n(O)c3ncccc3c2c1` [Example 266, 5-Hydroxy-N-methyl-6-oxo-5,6-dihydrobenzo[c]-1,8-naphthyridine-9-carboxamide]: the IC50 at HIV integrase (setting [2]) was less than 50 µM; in the data set with HXB2 virus (setting [4]), less than 100 µM.
As to `O=c1c(-c2ccccc2)c(O)c2cc(S(=O)(=O)NCc3ccccc3)cnc2n1O` [Example 96, N-benzyl-5,8-dihydroxy-7-oxo-6-phenyl-7,8-dihydro-1,8-naphthyridine-3-sulfonamide], the IC50 at HIV integrase (setting [2]) is less than 50 µM; in the data set on HXB2 virus (setting [4]) it was less than 100 µM.
Taken in the same sequence, the figures for `NCc1cccc(-c2cnc3c(c2)c(O)c(-c2ccccc2)c(=O)n3O)c1` [Example 50, 6-[3-(Aminomethyl)phenyl]-1,4-dihydroxy-3-phenyl-1,8-naphthyridin-2(1H)-one] were less than 50 µM and less than 100 µM.
On the same counts, the results for `O=c1c(-c2ccccc2)c(O)c2cc(S(=O)(=O)Nc3ccccc3)cnc2n1O` [Example 95, 5,8-Dihydroxy-7-oxo-N,6-diphenyl-7,8-dihydro-1,8-naphthyridine-3-sulfonamide] are less than 50 µM and less than 100 µM.
For `O=c1cc(C2=Cc3ccccc3CC2)c2cccnc2n1O` [Example 246, 4-(3,4-dihydronaphthalen-2-yl)-1-hydroxy-1,8-naphthyridin-2(1H)-one], the IC50 is less than 50 µM on HIV integrase (setting [2]) and less than 100 µM in the data set on HXB2 virus (setting [4]).
On the same counts, the results for `CC(c1ccc(-c2cc(=O)n(O)c3ncccc23)cc1)N1CCOCC1` (stereo not shown) [Example 174, 1-hydroxy-4-[4-(1-morpholin-4-ylethyl)phenyl]-1,8-naphthyridin-2(1H)-one] are less than 50 µM and less than 100 µM.
For the compound `CN(Cc1cccc(Cn2cncn2)c1)c1cc(=O)n(O)c2ncccc12` [Example 116], the IC50 is less than 50 µM on HIV integrase (setting [2]) and less than 100 µM in the data set with HXB2 virus (setting [4]).
`O=C(c1cccc(-c2cc(=O)n(O)c3ncccc23)c1)N1CCOCC1` [Example 179, 1-hydroxy-4-[3-(morpholin-4-ylcarbonyl)phenyl]-1,8-naphthyridin-2(1H)-one]: the IC50 at HIV integrase (setting [2]) is less than 50 µM; in the data set on HXB2 virus (setting [4]), less than 100 µM.
Taken in the same sequence, the figures for `CCOC(=O)c1c(N[C@@H](CO)c2ccccc2)c2cccnc2n(O)c1=O` [Example 129, Ethyl 1-hydroxy-4-{[(1R)-2-hydroxy-1-phenylethyl]amino}-2-oxo-1,2-dihydro-1,8-naphthyridine-3-carboxylate] were less than 50 µM and less than 100 µM.
Taken in the same sequence, the figures for `O=c1cc(-c2ccc(NCCN3CCOCC3)nc2)c2cccnc2n1O` [Example 200, 1-hydroxy-4-{6-[(2-morpholin-4-ylethyl)amino]pyridin-3-yl}-1,8-naphthyridin-2(1H)-one] were less than 50 µM and less than 100 µM.
As to `CN(Cc1ccccc1)C(=O)c1c(O)c2cccnc2n(O)c1=O` [Example 7, N-Benzyl-1,4-dihydroxy-N-methyl-2-oxo-1,2-dihydro-1,8-naphthyridine-3-carboxamide], the figures for the IC50 on HIV integrase (setting [2]) and with HXB2 virus (setting [4]) were less than 50 µM and less than 100 µM, respectively.
Regarding `O=c1cc(NCc2cccc(F)c2)c2cccnc2n1O` [Example 146, 4-[(3-fluorobenzyl)amino]-1-hydroxy-1,8-naphthyridin-2(1H-one)], the IC50 at HIV integrase (setting [2]) was less than 50 µM; in the data set on HXB2 virus (setting [4]), less than 100 µM.
